A short description of one data set: PK profiles in serum. Type of data set: in vivo, human.
The subject of data set [1] is BTC harboring FGFR2 fusions or rearrangements. Particulars: phase II trials; cited from earlier work.
For a further data set, the system named is IDH1-mutant BTC. Particulars: phase III; cited from earlier work.
Another data set relates to advanced BTC. Particulars: phase III, added to chemotherapy, first-line advanced BTC; cited from earlier work.

Marks after values point to notes of the source that are not given here.

In the case of `CC[C@@]1(O)C(=O)OCc2c1cc1n(c2=O)Cc2c-1nc1cc(F)c(C)c3c1c2[C@@H](NC(=O)CO)CC3` [MAAA-1181a], the “t1/2, mean (SD)” value in “PK profiles in serum” (n = 6) is 4.76 (1.02) days. Moreover, the “Tmax, median (range)” value in “PK profiles in serum” (n = 7) is reported as 3.88 (1.65-4.07) hours. Further, the “Cmax, mean (SD)” value in the data set “PK profiles in serum” (payload after T-DXd 5.4 mg/kg, n = 7) is 11.5 (4.65)^a ng/mL.

For `CCN1CCN(c2ccc(Nc3cc(N(C)C(=O)Nc4c(Cl)c(OC)cc(OC)c4Cl)ncn3)cc2)CC1` [infigratinib], the ORR in data set [1] was 18.8%.

With `N#Cc1ccnc(N2C(=O)CC[C@H]2C(=O)N(c2cncc(F)c2)[C@H](C(=O)NC2CC(F)(F)C2)c2ccccc2Cl)c1` [ivosidenib], the “PFS compared with placebo” value in the data set with IDH1-mutant BTC is “improved”.

Turning to `CCN1C(=O)N(c2c(F)c(OC)cc(OC)c2F)Cc2cnc3[nH]c(CN4CCOCC4)cc3c21` [pemigatinib], the ORR in data set [1] was 35.5%.

Consider durvalumab, for which the “Overall survival (OS)” value in the data set on advanced BTC was “improved overall survival”.

On to pembrolizumab, for which the “Overall survival (OS)” value in the data set on advanced BTC is given as “improved overall survival”.

Source of the values: paper PMC11404765 (Journal of Clinical Oncology, 2024).
